In ChEMBL document CHEMBL1134559 (J Med Chem, 2001) one finds Ki data, which are given here for three compounds.

The nature of assay [1]: Inhibition of stimulation of [35S]GTP-gamma-S, binding produced by the selective agonist (SNC-80, delta-receptor), in guinea pig caudate membranes.
In assay [2] the target is T1, Kappa-type opioid receptor (Cavia porcellus, UniProt P41144). In words: Binding affinity to opioid receptor kappa 1 of guinea pig brain, using [3H]U-69593 as radioligand.
Assay [3] has as its target T2, Delta-type opioid receptor (Rattus norvegicus, UniProt P33533). The experiment in a line: Binding affinity to delta-opioid receptor of rat brain using [3H]DADLE as radioligand.
For assay [4], the target named is T3, Mu-type opioid receptor (Rattus norvegicus, UniProt P33535). The experiment in a line: Binding affinity to mu-opioid receptor of rat brain using [3H]DAMGO as radioligand.
T3 sequence (P33535 whole entry): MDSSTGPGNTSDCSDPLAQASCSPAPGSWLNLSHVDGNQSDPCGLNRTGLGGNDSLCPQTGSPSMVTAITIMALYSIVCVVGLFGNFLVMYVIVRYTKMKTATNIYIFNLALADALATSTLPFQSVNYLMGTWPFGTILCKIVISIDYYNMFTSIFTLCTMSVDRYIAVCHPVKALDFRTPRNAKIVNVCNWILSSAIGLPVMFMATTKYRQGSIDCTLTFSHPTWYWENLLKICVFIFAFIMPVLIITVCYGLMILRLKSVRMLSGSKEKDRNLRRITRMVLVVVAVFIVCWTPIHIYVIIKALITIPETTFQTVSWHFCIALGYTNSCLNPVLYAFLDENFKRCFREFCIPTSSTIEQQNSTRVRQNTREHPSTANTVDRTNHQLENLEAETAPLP
Assay [5] concerns the target Mu-type opioid receptor (Cavia porcellus, UniProt P97266). In words: Inhibition of stimulation of [35S]GTP-gamma-S, binding produced by the selective agonist (DAMGO, mu-receptor), in guinea pig caudate membranes. The format is functional, cell membranes.
The target of assay [6] is T2, Delta-type opioid receptor. The experiment in a line: Binding affinity to delta-opioid receptor of rat brain using [3H]DADLE as radioligand.
Assay [7] addresses T3, Mu-type opioid receptor. The experiment in a line: Binding affinity to mu-opioid receptor of rat brain using [3H]DAMGO as radioligand.
Assay [8] concerns the target T3, Mu-type opioid receptor. The experiment in a line: Antagonist activity on agonist (DAMGO) stimulated [35S]GTP-gamma-S, binding in cloned mu opioid receptors. It counts as functional.
In assay [9] the target is T1, Kappa-type opioid receptor. The experiment in a line: Inhibition of stimulation of [35S]GTP-gamma-S, binding produced by the selective agonist (U69593, kappa-receptor), in guinea pig caudate membranes.

pKi: −log10 of the molar value. Bounds are passed on as bounds.

T2 sequence (P33533 whole entry): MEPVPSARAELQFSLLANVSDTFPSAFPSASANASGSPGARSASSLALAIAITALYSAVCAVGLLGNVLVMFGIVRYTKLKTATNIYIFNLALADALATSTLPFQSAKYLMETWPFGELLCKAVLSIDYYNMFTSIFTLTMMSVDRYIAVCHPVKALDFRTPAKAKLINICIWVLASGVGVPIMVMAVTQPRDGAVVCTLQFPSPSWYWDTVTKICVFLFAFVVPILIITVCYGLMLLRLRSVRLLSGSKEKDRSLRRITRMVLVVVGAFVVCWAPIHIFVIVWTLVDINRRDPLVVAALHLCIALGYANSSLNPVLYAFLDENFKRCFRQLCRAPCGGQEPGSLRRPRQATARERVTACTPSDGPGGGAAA
T1 sequence (P41144 whole entry): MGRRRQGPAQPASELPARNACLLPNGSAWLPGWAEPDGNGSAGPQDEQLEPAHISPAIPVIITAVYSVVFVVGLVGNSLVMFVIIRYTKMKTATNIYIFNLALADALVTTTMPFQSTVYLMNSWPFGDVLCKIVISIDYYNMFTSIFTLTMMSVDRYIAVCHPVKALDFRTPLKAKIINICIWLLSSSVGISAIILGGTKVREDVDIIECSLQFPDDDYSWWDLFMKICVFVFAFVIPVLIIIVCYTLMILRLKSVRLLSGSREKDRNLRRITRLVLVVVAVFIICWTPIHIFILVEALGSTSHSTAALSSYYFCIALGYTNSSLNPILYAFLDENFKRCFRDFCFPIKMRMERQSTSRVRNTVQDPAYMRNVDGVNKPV
Chain of Mu-type opioid receptor (Cavia porcellus, UniProt P97266) (P97266 whole entry): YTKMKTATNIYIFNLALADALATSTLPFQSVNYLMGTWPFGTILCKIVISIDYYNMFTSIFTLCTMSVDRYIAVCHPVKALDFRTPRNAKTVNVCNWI

For `CC(C)[C@@H](CN1CC[C@@](C)(c2cccc(O)c2)[C@@H](C)C1)NC(=O)CCc1ccc(O)cc1`, the pKi in assay [1] is 6.35; in assay [2], 8.42; in assay [3], less than 5.47; in assay [4] it was 6.77.
In the case of `CC(C)[C@@H](CN1CC[C@@](C)(c2cccc(O)c2)[C@@H](C)C1)NC(=O)C1Cc2ccc(O)cc2CN1` (stereo partly specified), the negative logarithm of the Ki (pKi) is 8.67 in assay [5]; 6.52 in assay [6]; 8.43 in assay [7]; 8.47 in [8]; 10.70 in [9].
Turning to `Oc1ccc2c3c1O[C@H]1c4[nH]c5c(c4C[C@@]4(O)[C@@H](C2)N(CC2CC2)CC[C@]314)C[C@@]1(O)[C@H]2Cc3ccc(O)c4c3[C@@]1(CCN2CC1CC1)[C@H]5O4` [NORBINALTORPHIMINE], the negative logarithm of the Ki (pKi) in assay [2] was 6.96; in assay [3] it was 7.07.
